Test system: misfolded proteins
Assay: Binding of misfolded proteins to biotinylated peptide on streptavidin plate (OD 492 nm) or Biacore sensor chip
Conditions: statement in words; data only in figures
Procedure: Biotinylated PRKLYDY (SEQ ID NO: 5) was coated on a preblocked streptavidin plate for 1 hour at room temperature. After a washing step different concentrations of HOCl-modified albumin, or HOCl-modified fibrinogen, or HOCl-modified antithrombin, or HOCl-modified LDL (including negative control) were added for 1 hour at room temperature. After another washing step mouse anti HSA antibody was added to HOCl-modified albumin, rabbit anti fibrinogen antibody to HOCl-modified fibrinogen, rabbit anti antithrombin antibody to HOCl-modified antithrombin and mouse anti Apo B antibody to HOCl-modified LDL for 1 hour at room temperature. After another washing step the corresponding peroxidase coupled secondary antibody was added for 1 hour at room temperature. After a final washing step it was stained with o-phenylenediamine-substrate and the reaction was stopped after 30 min with 4 N sulphuric acid. The optical density was measured at 492 nm. The result is illustrated in FIG. 1A and FIG. 1B.
Biotinylated HWRRAHLLPRLP (SEQ ID NO: 2) was coated on a preblocked streptavidin plate for 1 hour at room temperature. After a washing step different concentrations of HOCl-modified albumin, or HOCl-modified fibrinogen, or HOCl-modified antithrombin, or HOCl-modified LDL (including negative control) were added for 1 hour at room temperature. […] The optical density was measured at 492 nm (FIG. 8A and FIG. 8B). […]

affinity for misfolded proteins (general binding partner) | Substance
high affinity | PRKLYDY (Plasminogen peptide) [Pro, Arg, Lys, Leu, Tyr, Asp, Tyr]
high degree of affinity | HWRRAHLLPRLP (ADAM15 peptide aa position 286-297) [His, Trp, Arg, Arg, Ala, His, Leu, Leu, Pro, Arg, Leu, Pro]
